Assay results: patent publication EP4707280A1, “1,4-CINEOLE DERIVATIVE AND INTERMEDIATE THEREOF, HERBICIDE CONTAINING SAID DERIVATIVE AS ACTIVE INGREDIENT, METHOD FOR USING HERBICIDE, AND METHOD FOR PREPARING AGROCHEMICAL COMPOSITION” (HOKKO CHEMICAL INDUSTRY CO., LTD., priority 2023, dated 2024)

How the values were obtained:
Type in all cases: in vivo
[1] = test system: Echinochloa crus-galli; test: Test Example 8: herbicidal effect test by stem and leaf treatment in upland field (low dose); settings: Echinochloa crus-galli; 7.5 g per 10 ares; sprayed seven days after sowing, upland soil; 14 days after application; read-out: weed inhibition rate
[2] = test system: Digitaria ciliaris; test: as above; settings: Digitaria ciliaris; 7.5 g per 10 ares; sprayed seven days after sowing, upland soil; 14 days after application; read-out: weed inhibition rate
[3] = test system: Echinochloa crus-galli; test: Test Example 3: herbicidal effect test by soil application in upland field; settings: Echinochloa crus-galli, 120 g per 10 ares, sprayed one day after sowing, 14 days after application, read-out: weed inhibition rate
Summary of the method: (§1)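 Weed inhibition (%) was assessed 14 days after treatment, in duplicate per concentration group. Seeds had been mixed into the upper 1 cm of upland alluvial loam, and the soil surface was sprayed one day later with the diluted emulsifiable concentrate at 120 g active ingredient per 10 ares.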

[4] = test system: Digitaria ciliaris; test: as above; settings: Digitaria ciliaris, 120 g per 10 ares, sprayed one day after sowing, 14 days after application, read-out: weed inhibition rate
Summary of the method: as §1

[5] = test system: Scirpus juncoides; test: Test Example 2: herbicidal effect test by application during growth period of paddy rice; settings: Schoenoplectiella juncoides; 120 g per 10 ares; applied seven days after sowing, flooded pots; 14 days after application; read-out: weed inhibition rate
Summary of the method: (§2)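 Flooded paddy pot test, greenhouse. Seeds 30/species, 0–1 cm depth, water ~3 cm. EC diluted in water, dropper-applied 7 d post-sowing at 120 g a.i./10 a. Inhibition rate (%) read 14 d after treatment; n=2.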

[6] = test system: Echinochloa crus-galli var. formosensis; test: as above; settings: Echinochloa crus-galli; 120 g per 10 ares; applied seven days after sowing, flooded pots; 14 days after application; read-out: weed inhibition rate
Summary of the method: as §2

[7] = test system: Echinochloa crus-galli var. formosensis; test: Test Example 5: herbicidal effect test by soil application in paddy rice (low dose); settings: Echinochloa crus-galli, soil, 336 h; 7.5 g per 10 ares; applied immediately after sowing, flooded pots; 14 days after application; read-out: weed inhibition rate
Summary of the method: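 Pre-emergence paddy test: seeds sown 0–1 cm (30 each), pots flooded ~3 cm, greenhouse. EC dilution dropped into water right after sowing, 7.5 g a.i./10 a. Duplicate pots; weed inhibition rate (%) by formula, day 14.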

[8] = test system: Echinochloa crus-galli var. formosensis; test: Test Example 6: herbicidal effect test by application during growth period of paddy rice (low dose); settings: Echinochloa crus-galli; 7.5 g per 10 ares; applied seven days after sowing, flooded pots; 14 days after application; read-out: weed inhibition rate
Summary of the method: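 Puddled, fertilised paddy soil was sown with 30 seeds per species and flooded to about 3 cm. After 7 days in a glass greenhouse, the diluted emulsifiable concentrate went into the water by dropper at 7.5 g/10 a. Effect scored at 14 days.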

[9] = test system: Scirpus juncoides; test: Test Example 1: herbicidal effect test by soil application in paddy rice; settings: Schoenoplectiella juncoides, soil, 336 h; 120 g active ingredient per 10 ares; applied immediately after sowing, flooded pots; 14 days after application; read-out: weed inhibition rate
Summary of the method: (§3)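 Pre-emergence paddy treatment: diluted emulsifiable concentrate applied by dropper at 120 g a.i./10 ares immediately after sowing. Seeds (30 per species, 0–1 cm deep) in fertilized, puddled paddy soil kept under ~3 cm flood in a glass greenhouse.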

[10] = test system: Echinochloa crus-galli var. formosensis; test: as above; settings: Echinochloa crus-galli, soil, 336 h; 120 g active ingredient per 10 ares; applied immediately after sowing, flooded pots; 14 days after application; read-out: weed inhibition rate
Summary of the method: as §3

[11] = test system: Digitaria ciliaris; test: Test Example 4: herbicidal effect test by stem and leaf treatment in upland field; settings: Digitaria ciliaris; 120 g per 10 ares; sprayed seven days after sowing, upland soil; 14 days after application; read-out: weed inhibition rate
[12] = test system: Echinochloa crus-galli; test: as above; settings: Echinochloa crus-galli; 120 g per 10 ares; sprayed seven days after sowing, upland soil; 14 days after application; read-out: weed inhibition rate
[13] = test system: Echinochloa crus-galli; test: Test Example 7: herbicidal effect test by soil application in upland field (low dose); settings: Echinochloa crus-galli, 7.5 g per 10 ares, sprayed one day after sowing, 14 days after application, read-out: weed inhibition rate
Summary of the method: (§4)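 Read-out: weed inhibition rate (%) at 14 d post-treatment, duplicate pots per concentration. Seeds sown in the top 1 cm of upland alluvial loam; emulsifiable concentrate diluted in water and sprayed on the soil surface 1 d after sowing at 7.5 g a.i./10 a (100 L/10 a spray volume).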

[14] = test system: Digitaria ciliaris; test: as above; settings: Digitaria ciliaris, 7.5 g per 10 ares, sprayed one day after sowing, 14 days after application, read-out: weed inhibition rate
Summary of the method: as §4

CC(C)[C@]12C[C@@H](OCc3c(Cl)cccc3Cl)[C@](C)(C[C@@H]1Cl)O2 [1-652, (1R,2S,4S,5R)-2-chloro-5-[(2,6-dichlorophenyl)methoxy]-1-isopropyl-4-methyl-7-oxabicyclo[2.2.1]heptane]
≥ 80%: inhibition at 75 g/ha [1] | inhibition at 75 g/ha [2] | inhibition at 1200 g/ha [3] | inhibition at 1200 g/ha [4] | inhibition at 1200 g/ha [5] | inhibition at 1200 g/ha [6] | inhibition at 75 g/ha [7] | inhibition at 75 g/ha [8] | pest or weed control at 1200 g/ha [9] | pest or weed control at 1200 g/ha [10] | inhibition at 1200 g/ha [11] | inhibition at 1200 g/ha [12] | inhibition at 75 g/ha [13] | inhibition at 75 g/ha [14]

CC(C)[C@]12C[C@@H](OCc3c(F)cccc3Cl)[C@](C)(C[C@@H]1Cl)O2 [1-653, (1R,2S,4S,5R)-2-chloro-5-[(2-chloro-6-fluoro-phenyl)methoxy]-1-isopropyl-4-methyl-7-oxabicyclo[2.2.1]heptane]
≥ 80%: inhibition at 75 g/ha [1] | inhibition at 75 g/ha [2] | inhibition at 1200 g/ha [3] | inhibition at 1200 g/ha [4] | inhibition at 1200 g/ha [5] | inhibition at 1200 g/ha [6] | inhibition at 75 g/ha [7] | inhibition at 75 g/ha [8] | pest or weed control at 1200 g/ha [9] | pest or weed control at 1200 g/ha [10] | inhibition at 1200 g/ha [11] | inhibition at 1200 g/ha [12] | inhibition at 75 g/ha [13] | inhibition at 75 g/ha [14]

CC(C)[C@]12C[C@@H](OCc3ccccn3)[C@](C)(C[C@@H]1Cl)O2 [1-658, 2-[[(1S,2R,4R,5S)-5-chloro-4-isopropyl-1-methyl-7-oxabicyclo[2.2.1]heptan-2-yl]oxymethyl]pyridine]
≥ 80%: inhibition at 75 g/ha [1] | inhibition at 75 g/ha [2] | inhibition at 1200 g/ha [3] | inhibition at 1200 g/ha [4] | inhibition at 1200 g/ha [5] | inhibition at 1200 g/ha [6] | inhibition at 75 g/ha [7] | inhibition at 75 g/ha [8] | pest or weed control at 1200 g/ha [9] | pest or weed control at 1200 g/ha [10] | inhibition at 1200 g/ha [11] | inhibition at 1200 g/ha [12] | inhibition at 75 g/ha [13] | inhibition at 75 g/ha [14]

CC(C)[C@]12C[C@@H](OCc3cccs3)[C@](C)(C[C@@H]1Cl)O2 [1-661, (1R,2S,4S,5R)-2-chloro-1-isopropyl-4-methyl-5-(2-thienylmethoxy)-7-oxabicyclo[2.2.1]heptane]
≥ 80%: inhibition at 75 g/ha [1] | inhibition at 75 g/ha [2] | inhibition at 1200 g/ha [3] | inhibition at 1200 g/ha [4] | inhibition at 1200 g/ha [5] | inhibition at 1200 g/ha [6] | inhibition at 75 g/ha [7] | inhibition at 75 g/ha [8] | pest or weed control at 1200 g/ha [9] | pest or weed control at 1200 g/ha [10] | inhibition at 1200 g/ha [11] | inhibition at 1200 g/ha [12] | inhibition at 75 g/ha [13] | inhibition at 75 g/ha [14]

CC(C)[C@]12C[C@@H](OCc3ccsc3)[C@](C)(C[C@@H]1Cl)O2 [1-662, (1R,2S,4S,5R)-2-chloro-1-isopropyl-4-methyl-5-(3-thienylmethoxy)-7-oxabicyclo[2.2.1]heptane]
≥ 80%: inhibition at 75 g/ha [1] | inhibition at 75 g/ha [2] | inhibition at 1200 g/ha [3] | inhibition at 1200 g/ha [4] | inhibition at 1200 g/ha [5] | inhibition at 1200 g/ha [6] | inhibition at 75 g/ha [7] | inhibition at 75 g/ha [8] | pest or weed control at 1200 g/ha [9] | pest or weed control at 1200 g/ha [10] | inhibition at 1200 g/ha [11] | inhibition at 1200 g/ha [12] | inhibition at 75 g/ha [13] | inhibition at 75 g/ha [14]

CC(C)=CCO[C@@H]1C[C@]2(C(C)C)O[C@@]1(C)C[C@@H]2I [1-732, (1R,2S,4S,5R)-2-iodo-1-isopropyl-4-methyl-5-(3-methylbut-2-enoxy)-7-oxabicyclo[2.2.1]heptane]
≥ 80%: inhibition at 75 g/ha [1] | inhibition at 75 g/ha [2] | inhibition at 1200 g/ha [3] | inhibition at 1200 g/ha [4] | inhibition at 1200 g/ha [5] | inhibition at 1200 g/ha [6] | inhibition at 75 g/ha [7] | inhibition at 75 g/ha [8] | pest or weed control at 1200 g/ha [9] | pest or weed control at 1200 g/ha [10] | inhibition at 1200 g/ha [11] | inhibition at 1200 g/ha [12] | inhibition at 75 g/ha [13] | inhibition at 75 g/ha [14]

CC#CCO[C@@H]1C[C@]2(C(C)C)O[C@@]1(C)C[C@@H]2I [1-734, (1R,2S,4S,5R)-5-but-2-ynoxy-2-iodo-1-isopropyl-4-methyl-7-oxabicyclo[2.2.1]heptane]
≥ 80%: inhibition at 75 g/ha [1] | inhibition at 75 g/ha [2] | inhibition at 1200 g/ha [3] | inhibition at 1200 g/ha [4] | inhibition at 1200 g/ha [5] | inhibition at 1200 g/ha [6] | inhibition at 75 g/ha [7] | inhibition at 75 g/ha [8] | pest or weed control at 1200 g/ha [9] | pest or weed control at 1200 g/ha [10] | inhibition at 1200 g/ha [11] | inhibition at 1200 g/ha [12] | inhibition at 75 g/ha [13] | inhibition at 75 g/ha [14]

CC(C)[C@]12C[C@@H](OCc3ccccc3)[C@](C)(C[C@@H]1I)O2 [1-740, (1R,2S,4S,5R)-5-benzyloxy-2-iodo-1-isopropyl-4-methyl-7-oxabicyclo[2.2.1]heptane]
≥ 80%: inhibition at 75 g/ha [1] | inhibition at 75 g/ha [2] | inhibition at 1200 g/ha [3] | inhibition at 1200 g/ha [4] | inhibition at 1200 g/ha [5] | inhibition at 1200 g/ha [6] | inhibition at 75 g/ha [7] | inhibition at 75 g/ha [8] | pest or weed control at 1200 g/ha [9] | pest or weed control at 1200 g/ha [10] | inhibition at 1200 g/ha [11] | inhibition at 1200 g/ha [12] | inhibition at 75 g/ha [13] | inhibition at 75 g/ha [14]
